Assay results from US20050053580A1, “Use of microbiology non-viral substances for treating acne” (priority 2001, published 2005).

Tests used:
[1] = system: SZ95 sebocytes; test: SZ95 sebocyte proliferation, crystal violet assay; format: cell-based, human; details: for inhibition of the testosterone-induced stimulation of the SZ95 sebocyte proliferation: 10^−7 M testosterone, stimulation period 44 hours; for increase in proliferation: after 72 h, native SZ95 sebocytes
[2] = system: androgen receptor; test: Androgen receptor expression by immunoblotting in SZ95 sebocytes; format: cell-based, human; details: for inhibition of the androgen receptor expression compared to native SZ95 sebocytes: 1.0 μM, after 14 h; for protein expression of the androgen receptor: 0.4 and 1.0 μM, after 24 hours
[3] = 1 μM oligonucleotide, 4 h transfection, 14 h recovery

Compound | inhibition of the testosterone-induced stimulation of the SZ95 sebocyte proliferation [1, 3] | inhibition of the androgen receptor expression compared to native SZ95 sebocytes [2] [%] | protein expression of the androgen receptor [2] | also measured
5′-CTGCACTTCCATCCTTGAGCTTGGC-3′ [Thioate antisense oligonucleotide] | inhibited | 39 | reduced protein expression | proliferation pattern in the presence of testosterone [1, 3]: same proliferation pattern as native cells
5′-CTGCCCTTCAATCCCTGAGTTTGGC-3′ (DNA CTGCCCTTCAATCCCTGAGTTTGGC; listed as DNA, chemistry not given here) [mismatch-oligonucleotide, mismatch control oligonucleotide to safeguard antisense specificity, reference compound] |  |  |  | protein expression of the androgen receptor versus non-transfected cells ([2]; four hours' transfection with DOTAP, recovery phase of at least 24 hours, Western blot): comparable
5′-GCCAAGCUCAAGGAUGGAAGUGCAG-3′ (antisense GCCAAGCUCAAGGAUGGAAGUGCAG; 2'-O-methylribose, further chemistry not given here) [methylribosyl antisense oligonucleotide against the androgen receptor] | highly significant | 87 | reduced protein expression | 
C[C@]12CCC(=O)C[C@@H]1CC[C@@H]1[C@@H]2CC[C@]2(C)[C@@H](O)CC[C@@H]12 [DHT, 5α-dihydrotestosterone, reference compound] |  |  |  | increase in proliferation ([1]; 10^−7-10^−6 DHT): significant
C[C@]12CC[C@H]3[C@@H](CCC4=CC(=O)CC[C@@]43C)[C@@H]1CC[C@@H]2O [testosterone, reference compound] |  |  |  | increase in proliferation ([1]; 10^−7 and 5×10^−7 M testosterone): significant
